Test results: patent US20120269834A1, “IMMUNOGLOBULIN CLEAVAGE FRAGMENT VACCINE COMPOSITIONS” (priority 2010, published 2012)
“And” between values parts separate entries of the source, which are not always exact repeats. Equal entries are not always repeated. Ends that are not written are not given here. * marks the point of attachment. Biotin = O=C1N[C@H]2[C@H](CS[C@H]2CCCCC(=O)*)N1

What was measured:
[1] = molecular target: Fab fragment of the 2095-2 antibody; conditions: 25° C; for kd / ka: 1:1 (Langmuir) model; for ka: global fit of three Fab surface densities; for Kd: calculated KD
Procedure: The specificity of binding was further examined using a Fab fragment of the 2095-2 antibody using a surface plasmon resonance platform (Biacore). Briefly, the Fab was immobilized to a CM5 sensor chip in a Biacore 2000 at three different surface densities (8500, 1650, and 350 RU) using standard NHS/EDC coupling. The running buffer contained 10 mM HEPES pH 7.4, 150 mM NaCl, and 0.01% Tween-20. Data were collected at 25° C.
Three N-terminally biotinylated peptides were tested for binding of to the immobilized Fab: WT, representing the expected sequence of a peptide fragment from a human IgG1 cleavage site after cleavage by the Streptococcus pyogenes IdeS protease; E233A, representing a variant of having a single alanine substitution at the amino acid residue four positions upstream of the C-terminus; and L234A, a variant having a single alanine substitution at the amino acid residue three positions upstream from the C-terminus. The peptides were modified by substituting serine for cysteine to make them compatible with the coupling chemistry and preserve the monomeric structure.
Peptides Wild type and E233A were tested in a 3-fold dilution series using 588 nM and 2.9 uM as the highest concentration, respectively. Peptide L234A was tested at 14.7 uM as the highest concentration in a 2-fold dilution series. Each peptide concentration series was tested in triplicate over the three different density Fab surfaces. The association and dissociation were monitored for 1 minute. Surfaces were regenerated with a 12 second injection of 1/500 dilution of phosphoric acid.

[2] = system: cleavage site specific analogueue peptide; test: ELISA titers to the peptide analogueue after immunization of rabbits; type: in vivo, rabbit; conditions: reciprocal of the dilution at which a signal was detectable, individual immunized rabbits
Description: The procedure described in Example 3 verified that test subject rabbits have had previously developed immune titers to Staph. aureus antigens which would provide for natural bacterial targeting antibodies. To determine if rabbits would generated a sufficiently specific and robust cleavage site specific antibody response after vaccination, with cleavage site peptides, to protect against a bacterial challenge, the following experiment was perfomed where rabbits were immunized with a GluV8-cleavage site peptide analogueue (residues 7-15 of SEQ ID NO: 1, […]) conjugated to the immunogen KLH.
Following immunization, the reactivity of rabbit serum to the peptide analogueue was tested by ELISA. […] Cleavage site specific antibodies were also detected in the wiffle ball fluids of all six rabbits, with the same animal (657) having a low level of detectible antibodies.

[3] = system: S. aureus (ATCC 29213); test: wiffle ball (tissue cage) S. aureus infection model in rabbits; type: in vivo
Description: In order to test the capacity of cleavage site specific antibodies to rescue cleaved IgGs in vivo, a model for bacterial infection employing a “tissue cage” (Fernandez J A, et. al. (1997) Antimicrob. Agents Chemother. 43(3):667-671) was adopted. In this system, a wiffle ball is surgically implanted subcutaneously in the dorsal cervical area. The model allows the infectious agents to be localized within an easily accessible fluid compartment, a tissue pouch, and has been used to assess the efficacy of antibiotics against bacteria.
In the final phase of the study, the immunized and non-immunized rabbits were inoculated with 6.2 log10 colony forming units (CFUs) of S. aureus (ATCC 29213) directly into the wiffle-ball compartments.
The bacterial counts and test subject viability were monitored over the course of two weeks for bacterial counts and survival. The data shown in FIG. 9 indicate that during the first week of the study, the average bacterial counts for control animals were several logs higher than cleavage site specific vaccinated animals. For example, on day 2 the control had 7.2 log10 CFU/ml wiffle ball fluid while the immunized group had 5.2 log10 CFU/ml wiffle ball fluid.

[4] = molecular target: human IgG1 (Homo sapiens, UniProt P01857); test: action of human and bacterial proteases on human IgG1 (Table 1); type: biochemical; conditions: for Major Product: None = no detectable cleavage in 24 hours; for Cleaved Site: human IgG1 heavy chain, EU numbering
Chain of human IgG1 (P01857 1-330 isoform P01857-1, other chains not shown): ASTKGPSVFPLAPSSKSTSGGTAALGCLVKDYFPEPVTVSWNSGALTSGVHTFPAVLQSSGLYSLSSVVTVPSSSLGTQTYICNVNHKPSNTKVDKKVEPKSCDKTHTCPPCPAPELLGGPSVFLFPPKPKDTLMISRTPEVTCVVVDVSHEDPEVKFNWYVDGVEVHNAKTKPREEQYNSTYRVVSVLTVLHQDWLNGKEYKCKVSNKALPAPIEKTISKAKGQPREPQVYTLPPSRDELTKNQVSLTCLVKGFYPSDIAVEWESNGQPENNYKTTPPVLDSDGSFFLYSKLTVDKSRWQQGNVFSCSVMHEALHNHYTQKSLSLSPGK
Procedure: Table 1 is a summary of the findings concerning the action of human proteases and two bacterial proteases on human IgG1. The term “Coagulation proteinases” refers to serum coagulation cascade proteins including; FXIIa, FIXa, FXa, thrombin and activated protein C; plasmin was plasminogen co-incubated with plasminogen activators; tPA, streptokinase and staphylokinase; “plasminogen activators alone” are without plasminogen; and the MMPs were recombinant proteinases obtained either as the active form or the pro-enzyme as detailed in the Materials; and “None” denotes no detectable cleavage in 24 hours. Except where indicated all enzymes where human. The residue designations are for the EU numbering system for the IgG1 antibody heavy chain where the 25 residues of SEQ ID NO: 1 corresponds to residues 219 through 243 of the complete mature heavy chain.

[5] = system: platelet surface IIb/III3 receptors; test: platelet aggregation assay; type: cell-based; conditions: 5 μM ADP; compared with intact c7E3 IgG
Procedure: c7E3 inhibits platelet aggregation by binding to platelet surface IIb/III3 receptors—thereby blocking the ability of fibrinogen to bind to the receptors on activated platelets and to clump them together. The respective inhibitory profiles of intact and single-cleaved c7E3 IgG were tested in a platelet aggregation assay. Platelet aggregation is measured as an increase of light transmission through a platelet suspension after activation with a physiological agonist. The inhibition is compared to control aggregation to 5 μM adenosine diphosphate (ADP). The percent inhibition was calculated as: control aggregation—test aggregation X 100%, divided by control aggregation.

[6] = system: platelets; test: circulating platelet counts in dogs; type: in vivo, dog
Procedure: First, the c7E3 antibody antigen binding and platelet depletion parameters were established in dogs.
c7E3 IgG and c7E3 IgG single-cleaved by IdeS protease were also compared in vivo. Three groups of 5 animals received either saline control, intact c7E3 IgG (0.05 mg/kg) or c7E3 single-cleaved IgG (0.05 mg/kg). Platelet counts were monitored at baseline and at 2, 24, 48, 72 and 96 hours post-administration. Limiting the study to 5 days minimized the likelihood of anti-c7E3 immune responses that might confound the interpretation of the results. The results are presented in FIG. 3 as the mean platelet count±SD for each animal group at each time point. The extent of the error bars connotes the normal variability of platelet counts in different animals (for example, the predose counts for the 5 animals in the single-cleaved IgG treatment group were 175,000, 355,000, 305,000, 276,000 and 334,000 per μL, respectively).
To be consistent with the prior experiments, the variants of c7E3 were all administered at the 0.05 mg/kg dose. The unique aspect of the experiment (groups 6 and 7) involves the infusion of the first targeting mAb followed by the cleavage site specific mAb after a 10 minute delay. […] Platelet counts were monitored over a 96-hour period. […]

Biotin-TSPPSPAPALLG [E233A] was tested, and the kd [1] was 0.1070 ± 0.04 s⁻¹, the ka [1] was 7.29 ± 0.03 M-1s-1 × 10^−5 and the Kd [1] was 147 nM.
Biotin-TSPPSPAPEALG [L234A] was tested, and the kd [1] was 1.03 ± 0.01 s⁻¹, the ka [1] was 1.24 ± 0.01 M-1s-1 × 10^−5 and the Kd [1] was 8340 nM.
With Biotin-TSPPSPAPELLG [Wt] the kd [1] was 0.00443 ± 0.02 s⁻¹, the ka [1] was 5.22 ± 0.04 M-1s-1 × 10^−5 and the Kd [1] was 8.5 nM.
In the case of “C-T-S-P-P-S-P-S-P-A-P-E (CTSPPSPSPAPE; also: conjugated to KLH) [Glutamyl endopeptidase cleavage site analogueue peptide conjugated to keyhole limpet hemocyanin, used to vaccinate rabbits]”, the “Serum (titer)” value [2] is reported as 640 and 12,800 and 51,000 and 820,000 and 205,000, the “Wiffle ball (titer)” value ([2]; wiffle ball fluid) is reported as 3,200 and 12,800 (3×) and 51,000 and 320 and the average bacterial counts ([3]; day 2, immunized rabbits inoculated with 6.2 log10 CFUs) is reported as 5.2 log10 CFU/ml wiffle ball fluid. For the same substance, the animals viable ([3]; end of the two week study) was 100%.
With Cathepsin D: human protease the “Major Product” value [4] was “None”.
In the case of Cathepsin G: human serine endopeptidase, the “Major Product” value [4] is reported as “F(ab′)2 +” and the “Cleaved Site” value [4] is reported as “Glu^233-”.
For “Collagenase 2 (MMP-8): recombinant human MMP”, the “Major Product” value [4] was “None”.
“Glutamyl endopeptidase I (Glu V8 protease): glutamyl endopeptidase I from Staph. aureus” was tested, and the “Major Product” value [4] was “F(ab′)2 +” and the “Cleaved Site” value [4] was “Glu^233-”.
With “Interstitial collagenase (MMP-1): recombinant human MMP” the “Major Product” value [4] was “None”.
With “Matrilysin (MMP-7): recombinant human MMP” the “Major Product” value [4] was “F(ab′)2 +” and the “Cleaved Site” value [4] was “Leu^234-”.
“Neutrophil elastase: human serine endopeptidase” was tested, and the “Major Product” value [4] was “Fab + Fc” and the “Cleaved Site” value [4] was “Thr^223-”.
With “Stromelysin (MMP-3): recombinant human MMP” the “Major Product” value [4] was “F(ab′)2 +” and the “Cleaved Site” value [4] was “Pro^232-”.
“c7E3 single-cleaved IgG: c7E3 IgG single-cleaved in the lower hinge by IdeS protease” was tested, and the “binding/inhibition of platelet aggregation after single lower hinge cleavage by IdeS” value [5] was “no loss of binding/inhibition”, the “effect on platelet numbers” value ([6]; 0.05 mg/kg, groups of 5 animals, monitored to 96 hours) was “essentially without effect” and the “effect on platelet numbers” value ([6]; FIG. 12 study, groups of 3 animals, c7E3 variants 0.05 mg/kg, 2095-2 0.5 mg/kg) was “without effect”.
